Columns and labels:
Assay in all cases: relative viability (nuclei count vs DMSO), 5 days (fraction); higher = more cells survive
EHT 1864 + Lapatinib = compound: C1COCCN1CC2=CC(=O)C(=CO2)OCCCCCSC3=C4C=CC(=CC4=NC=C3)C(F)(F)F [EHT 1864] + CS(=O)(=O)CCNCc1ccc(-c2ccc3ncnc(Nc4ccc(OCc5cccc(F)c5)c(Cl)c4)c3c2)o1 [Lapatinib] (partner 2 µM)
How it was run: (§1)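 Lung cancer cell lines were seeded in 1536-well plates and dosed by pin tool the next day, with either a single drug or a fixed anchor-drug dose combined with five library-drug doses (not always all listed) spaced in √10 steps. Five days later, one step fixed the cells and stained their nuclei (final 0.05% Triton X-100, 1% formaldehyde, 1 ug/ml Hoechst), and nuclei were counted on 4× images. Relative viability is the nuclei count in treated wells divided by the count in vehicle wells, and each value is the median of duplicate plates.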

EHT 1864 + AZD7762 = compound: C1COCCN1CC2=CC(=O)C(=CO2)OCCCCCSC3=C4C=CC(=CC4=NC=C3)C(F)(F)F [EHT 1864] + NC(=O)Nc1cc(-c2cccc(F)c2)sc1C(=O)N[C@H]1CCCNC1 [AZD7762] (partner 0.2 µM)
How it was run: as §1

EHT 1864 + Olaparib = compound: C1COCCN1CC2=CC(=O)C(=CO2)OCCCCCSC3=C4C=CC(=CC4=NC=C3)C(F)(F)F [EHT 1864] + O=C(c1cc(Cc2n[nH]c(=O)c3ccccc23)ccc1F)N1CCN(C(=O)C2CC2)CC1 [Olaparib] (partner 8 µM)
How it was run: as §1

EHT 1864 + Decitabine = compound: C1COCCN1CC2=CC(=O)C(=CO2)OCCCCCSC3=C4C=CC(=CC4=NC=C3)C(F)(F)F [EHT 1864] + Nc1ncn([C@H]2C[C@H](O)[C@@H](CO)O2)c(=O)n1 [Decitabine] (partner 2 µM)
How it was run: as §1

| Cell Line | relative viability (EHT 1864 + Lapatinib; first compound 0.04 µM) | relative viability (EHT 1864 + Lapatinib; first compound 0.1265 µM) | relative viability (EHT 1864 + Lapatinib; first compound 0.4 µM) | relative viability (EHT 1864 + Lapatinib; first compound 1.265 µM) | relative viability (EHT 1864 + Lapatinib; first compound 4 µM) | relative viability (EHT 1864 + AZD7762; first compound 0.04 µM) | relative viability (EHT 1864 + AZD7762; first compound 0.1265 µM) | relative viability (EHT 1864 + AZD7762; first compound 0.4 µM) | relative viability (EHT 1864 + AZD7762; first compound 1.265 µM) | relative viability (EHT 1864 + AZD7762; first compound 4 µM) | relative viability (EHT 1864 + Olaparib; first compound 0.04 µM) | relative viability (EHT 1864 + Olaparib; first compound 0.1265 µM) | relative viability (EHT 1864 + Olaparib; first compound 0.4 µM) | relative viability (EHT 1864 + Olaparib; first compound 1.265 µM) | relative viability (EHT 1864 + Olaparib; first compound 4 µM) | relative viability (EHT 1864 + Decitabine; first compound 0.04 µM) | relative viability (EHT 1864 + Decitabine; first compound 0.1265 µM) | relative viability (EHT 1864 + Decitabine; first compound 0.4 µM) | relative viability (EHT 1864 + Decitabine; first compound 1.265 µM) | relative viability (EHT 1864 + Decitabine; first compound 4 µM) |
| --- | --- | --- | --- | --- | --- | --- | --- | --- | --- | --- | --- | --- | --- | --- | --- | --- | --- | --- | --- | --- |
| NCI-H3122 | 0.976 | 0.825 | 1.03 | 1.08 | 1 | 0.882 | 0.808 | 0.911 | 0.985 | 0.878 | 0.556 | 0.58 | 0.627 | 0.596 | 0.612 | 0.373 | 0.423 | 0.42 | 0.432 | 0.339 |
| PC-3 [JPC-3] | 0.508 | 0.405 | 0.452 | 0.474 | 0.438 | 0.825 | 0.753 | 0.808 | 0.73 | 0.863 | 1.15 | 1.04 | 1.14 | 1.03 | 1.05 | 0.801 | 0.745 | 0.877 | 0.954 | 0.844 |
| PC-14 | 0.316 | 0.28 | 0.325 | 0.294 | 0.272 | 0.368 | 0.248 | 0.394 | 0.304 | 0.433 | 0.264 | 0.36 | 0.266 | 0.331 | 0.265 | 0.213 | 0.201 | 0.265 | 0.244 | 0.162 |
| RERF-LC-KJ | 0.916 | 0.913 | 0.925 | 0.798 | 0.854 | 0.893 | 0.873 | 0.96 | 0.939 | 1.43 | 0.902 | 0.86 | 0.849 | 0.913 | 0.76 | 0.588 | 0.691 | 0.61 | 0.694 | 0.576 |

Source: the supplement of paper PMC10307832
